Read-outs that look alike come from different tables or passages of the source.

Here are results for two compounds from publication PMC11284790, “Targeting Myeloperoxidase Ameliorates Gouty Arthritis: A Virtual Screening Success Story” (Journal of Medicinal Chemistry, 2024).

For one test, the target named is Human leukocyte MPO (Homo sapiens, UniProt P05164). Briefly: MPO chlorinating activity assay (taurine chloramine/TMB). Format: biochemical. The arrangement: Human leukocyte MPO (EC 1.7.1.11) was purchased from Planta Natural Products; purchased Planta Natural Products (Vienna, Austria); host or cells: human leukocytes. The settings on record: for IC50: pH 7.4. As for the experimental part: Chlorinating activity was carried out in phosphate buffer (20 mM, pH 7.4). Compounds (20 μM) were dissolved in 0.03% DMSO, MPO (10 nM), diethylenetriaminepentaacetic acid (100 μM), cetyltrimethylammonium chloride (0.03%), NaCl (140 mM), and taurine (5 mM).[31] This mixture was incubated at 37 °C for 15 min before adding 40 μM hydrogen peroxide. The reaction ran for 8 min and was then stopped by catalase (20 μg/mL). Oxidation of TMB (2 mM) (3,3,5,5-tetramethylbenzidine) by taurine chloroamine catalyzed by iodide (100 μM) was quantified at 650 nm.[33] Results were expressed as a percentage of the control (vehicle). IC50 was calculated by nonlinear regression using the Hill equation present in GraphPad Prism 5 software.
Sequence of Human leukocyte MPO (P05164 279-745 limits assumed): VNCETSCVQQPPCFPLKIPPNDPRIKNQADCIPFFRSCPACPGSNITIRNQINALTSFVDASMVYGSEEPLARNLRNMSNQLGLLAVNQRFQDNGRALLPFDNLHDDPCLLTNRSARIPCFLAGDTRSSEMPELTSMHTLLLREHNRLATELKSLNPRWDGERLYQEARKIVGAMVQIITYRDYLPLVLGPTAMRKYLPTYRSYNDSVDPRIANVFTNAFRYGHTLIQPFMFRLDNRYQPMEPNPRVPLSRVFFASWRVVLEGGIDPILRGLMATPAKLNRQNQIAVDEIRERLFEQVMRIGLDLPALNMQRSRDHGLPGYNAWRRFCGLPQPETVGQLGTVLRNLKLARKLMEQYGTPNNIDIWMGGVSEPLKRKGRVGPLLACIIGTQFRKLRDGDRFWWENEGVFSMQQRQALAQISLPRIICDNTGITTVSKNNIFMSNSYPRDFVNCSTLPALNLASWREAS
Sequence of Human leukocyte MPO (P05164 165-278 limits assumed): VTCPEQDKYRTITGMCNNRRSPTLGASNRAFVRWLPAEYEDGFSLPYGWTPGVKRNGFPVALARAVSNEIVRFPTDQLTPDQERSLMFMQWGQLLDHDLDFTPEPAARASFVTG

In the next test the test system is dHL-60 cells. Put plainly: Cellular production of HOCl, PMA-activated dHL-60 cells. Format: cell-based, human. The settings on record: 20 μM compound, 100 nM PMA, 1 h. As for the experimental part:
Human promyelocytic leukemic cells (HL-60) (BCRJ, RJ, Brazil) were cultivated in RPMI with fetal bovine serum (10%), penicillin (62 μg/mL), and streptomycin (100 μg/mL) at 37 °C in 5% CO2 atmosphere. HL-60 cells were differentiated to neutrophil-like (dHL-60) by DMSO (1.25%) during 4 days.[25]
(§1) Measurement of HOCl production by 1 × 10^6 dHL-60 or neutrophils was carried out in PBS (10 mM Na2HPO4, 2 mM KH2PO4, 0.5 mM MgCl2, 1 mM CaCl2, 140 mM NaCl, 5.5 mM dextrose, 100 μM diethylenetriaminepentaacetic acid, 5 mM taurine) in the presence of the compounds (20 μM in 0.3% DMSO) or 0.3% DMSO (control). Cells were activated with phorbol myristate acetate (100 nM) at 37 °C for 1 h. After incubation, cells were centrifuged at 1400 rpm for 10 min, and the supernatant was diluted threefold. Finally, 240 μL of this supernatant was added to 60 μL acetate buffer (400 mM, pH 5.4) containing NaI (100 μM) and TMB (2 mM in DMFO 10%). Taurine chloramine was quantified by TMB oxidation at 655 nm.[33] Inhibition of HOCl production was calculated as the percentage of the control (vehicle).

The subject of another test is MSU-induced paw edema. Briefly: MSU-induced paw edema, oral treatment. Format: in vivo, male C57BL/6 mice. The protocol:
Paw volume (mL) was measured at various time points, including before injection (baseline, B), […] 1, 2, 3, 4, 5, and 6 h following MSU injection using a plethysmometer (Ugo Basile, Comerio, Italy) (Figure 7). For this, the injected hind paw was immersed into the dipping solution (6 mM NaCl diluted in distilled water and added with 2 mL/L of a wetting compound provided by the manufacturer) until the ankle. The extent of edema was quantified as a change in paw volume (Δ mL) by subtracting the basal paw volume from the volume of the paw measured at each time point. To evaluate the antiedematogenic effect of orally administered MPO inhibitors (p.o.), the animals were fasted for 1 h and then treated with equimolar doses of the following substances: vehicle (VEH: 5% DMSO; 0.5% tween 80 in PBS), mefenamic acid (30 mg/kg), RL 6 (33 mg/kg), RL 7 (54 mg/kg), RL 21 (30 mg/kg), or ZINC9089086 (34 mg/kg). After 1 h, the anesthetized mice (2% isoflurane, v/v in O2) received either the vehicle (PBS, 30 μL, i.pl.) or 1.5 mg/30 μL MSU (i.pl.). The paw volume was evaluated at the same time points as previously described. The percentage of edema inhibition by the compounds was calculated discounting the paw volume of mice that received oral or intraperitoneal vehicle and PBS intraplantar (VEH + VEH).

Test [1] has as its system human peripheral blood neutrophils. Put plainly: Cellular production of HOCl, PMA-activated peripheral blood neutrophils. In kind it is cell-based. The following applies: 20 μM compound, 100 nM PMA, 1 h. As for the experimental part: Human neutrophils were obtained from healthy individuals as previously described.[24] The experiments were approved by the local ethics committee (CEPSH-ICB 1435/18).
as §1

The test system of the next test is IL-1β. Put plainly: Paw tissue IL-1β level after MSU (ELISA). The settings on record: intraperitoneal pretreatment (RL6 30 mg/kg), tissue collected at 6 h. In kind it is in vivo, male C57BL/6 mice. The protocol:
The remaining part of the homogenate was treated with a solution of protease/phosphatase inhibitors (1 mM phenylmethylsulfonyl fluoride, 10 μg/mL leupeptin, and 10 μg/mL trypsin inhibitor) and centrifuged at 10,000g (10 min at 4 °C). The obtained supernatants were subjected to 1:2 dilution in PBS and subsequently used for the assessment of IL-1β and IL-6 using murine enzyme-linked immunosorbent assay kits, specifically a sandwich ELISA technique, following manufacturer’s instructions (BioLegend, CA, USA). The protein content within the samples was determined by using the Bradford method (1976). The results were quantified and expressed in pg/mg of protein (Bio-Rad, Hercules, CA, USA).[76]

The subject of a further test is human neutrophils. Briefly: MSU-induced NETosis assay (sytox green fluorescence microscopy). In kind it is cell-based. The settings on record: 20 μM compound, MSU 250 μg/mL, 90 min. The protocol: NETosis assay was conducted on human neutrophils adhered to lysine-coated glass coverslips as previously reported.[80] After neutrophils’ adhesion, the compounds were diluted in RPMI medium (free of phenol red and fetal bovine serum) at a final concentration of 20 μM (0.15% DMSO) and added to the cells for 15 min at 37 °C in a 5% CO2 atmosphere. Then, MSU crystals (250 μg/mL), known to induce NETosis, were added. After 90 min incubation, the medium was carefully removed, paraformaldehyde was added (500 μL at 4%), and incubated at 4 °C overnight. In the following day, paraformaldehyde was removed, and cells were washed threefold with tris-HCl buffer (20 mM, pH 7.4) and kept into the same buffer at 4 °C. Tris-HCl buffer was carefully removed, and DNA was stained by adding 500 μL SYTOX Green (500 nM diluted in tris-HCl buffer). The system was kept for 30 min at room temperature, protected from light. After staining, the coverslips were mounted over the glass slides using ProLong Diamond Antifade Mountant fixation medium. Fluorescence images were acquired in an Axiovert 200 (Zeiss) fluorescence microscope with a 20x/0.4 objective and Zeiss Filter Set 09, λex = 450–490 nm, λem = above 515 nm. Images were taken by an Axiocam HR R3 camera device.

Where [2] appears, read: 20 μM compound, 10 nM MPO, 140 mM NaCl, 5 mM taurine, 40 μM H2O2, pH 7.4, read-out: % Inhibition (at 20 μM) Chlorinating.
Where [3] appears, read: supplementary csv copy of Table 1, read-out: % Inhibition (Chlorinating).

As to `Nc1cc2c3c(cccc3c1)C(=O)N(N)C2=O` [RL6], the IC50 against Human leukocyte MPO (10 nM MPO, 140 mM NaCl) worked out at 270 nM. The inhibition at 20 µM on Human leukocyte MPO (setting [2]) and at Human leukocyte MPO (setting [3]) was 86.5 ± 15.3% each time. The “chlorinating/peroxidatic activity inhibition ratio” value at Human leukocyte MPO (ratio of % inhibition at 20 μM, ~1 indicates true enzyme inhibitor) is on record as about 1. In addition, the “inhibition of HOCl production in dHL-60 cells” value in the test with dHL-60 cells was “significantly inhibited”. For the same compound, in the test on MSU-induced paw edema (33 mg/kg po), the “inhibition of edema vs VEH + MSU” value is on record as 57.0%. Besides, in test [1], the “inhibition of HOCl production in peripheral blood neutrophils” value was “significantly inhibited”. The “decrease in IL-1β levels in hind paw tissue” value in the test with IL-1β was 48.3%. Further, the “inhibition of MSU-induced NETosis” value with human neutrophils was “strongly inhibited”.
For `CN1CCc2nc3sc(C(=O)Nc4cccc(C#N)c4)c(N)c3cc2C1` [RL7], at Human leukocyte MPO (10 nM MPO, 140 mM NaCl), the IC50 was 560 nM. On Human leukocyte MPO (20 μM compound, 10 nM MPO, 140 mM NaCl, 5 mM taurine, 40 μM H2O2, pH 7.4), the “% Inhibition (at 20 μM) Chlorinating” value is listed as “active against chlorinating activity only”. For the same compound, the inhibition at 20 µM on Human leukocyte MPO (setting [2]) and on Human leukocyte MPO (setting [3]) was 84.9 ± 17% throughout. The “inhibition of HOCl production in dHL-60 cells” value in the test on dHL-60 cells is “significantly inhibited”. Moreover, the “inhibition of edema vs VEH + MSU” value in the test on MSU-induced paw edema (54 mg/kg po) was 74.3%. Moreover, the “inhibition of HOCl production in peripheral blood neutrophils” value in test [1] is on record as “significantly inhibited”. Besides, the “decrease in IL-1β levels in hind paw tissue” value in the test with IL-1β is “unable to decrease”. Moreover, the “inhibition of MSU-induced NETosis” value in the test with human neutrophils is on record as “to a lesser extent”.
